For orientation: IC50 means the point on the concentration scale where inhibition reaches its midpoint.

We go through 9 compounds from ChEMBL document CHEMBL1141310, “Screening of Indonesian medicinal plant extracts for antibabesial activity and isolation of new quassinoids from Brucea javanica” (J Nat Prod, 2007).

In brackets after ≈: the same amount, converted by molar mass.

This test concerns Babesia gibsoni. Description: Antibabesial activity against Babesia gibsoni. The test is classed as functional, organism-based.
Compound `COC(=O)[C@@]12OC[C@]34[C@H]([C@@H](O)[C@@H]1O)[C@@]1(C)CC(=O)C(O)=C(C)[C@@H]1C[C@H]3OC(=O)[C@H](OC(C)=O)[C@@H]24` [BRUCEINE B] yielded an IC50 of 0.893 µg/mL (≈ 1.86 µM).

For `COC(=O)[C@]12OC[C@]34[C@H]([C@@H](O)[C@@H]1O)[C@@]1(C)CC(=O)C(O)=C(C)[C@@H]1C[C@H]3OC(=O)[C@H](OC(=O)/C=C(\C)C(C)(C)OC(C)=O)[C@@H]24` [BRUCEANTINOL], the IC50 came out at 0.012 µg/mL (≈ 0.0198 µM). This IC50 is about 74-fold lower than that of the compound before.

As to `CC(=O)NCC(=O)O.N=C(N)c1ccc(/N=N/Nc2ccc(C(=N)N)cc2)cc1` [DIMINAZEN ACETURATE], half-maximal inhibition (IC50) required 0.103 µg/mL.

Consider `COC(=O)[C@]12OC[C@]34[C@H]([C@@H](O)[C@@H]1O)[C@@]1(C)CC(=O)C(O)=C(C)[C@@H]1C[C@H]3OC(=O)[C@H](OC(=O)/C=C(\C)C(C)(C)O)[C@@H]24` [BRUCEINE C], for which the IC50 worked out at 0.107 µg/mL (≈ 0.19 µM). This IC50 and that of the compound before are within 1.5-fold of each other.

`CC1=C(O)C(=O)C[C@]2(C)[C@H]3[C@@H](O)[C@H](O)[C@@]4(C(=O)O)OC[C@@]35[C@@H](C[C@@H]12)OC(=O)[C@H](OC(=O)CC(C)C)[C@@H]45` [BRUCEINE J] showed a half-inhibitory concentration (IC50) of 0.742 µg/mL (≈ 1.46 µM).

`CC(=O)OC(C)(C)/C(C)=C/C(=O)O[C@H]1C(=O)O[C@@H]2C[C@H]3C(C)=C(O)C(=O)C[C@]3(C)[C@H]3[C@@H](O)[C@H](O)[C@@]4(C(=O)O)OC[C@]32[C@@H]14` [BRUCEANTINOL B] gave an IC50 of 0.978 µg/mL (≈ 1.65 µM).

`COC(=O)[C@@]12OC[C@]34[C@H]([C@@H](O)[C@@H]1O)[C@@]1(C)CC(=O)C(O)=C(C)[C@@H]1C[C@H]3OC(=O)[C@H](OC(=O)CC(C)C)[C@@H]24` [BRUCEINE A] had a 50% inhibitory concentration (IC50) of 0.004 µg/mL (≈ 0.00765 µM).

For `CC1=CC(=O)[C@@H](O)[C@]2(C)[C@H]3[C@@H](O)[C@H](O)[C@]4(C)OC[C@@]35[C@@H](C[C@@H]12)OC(=O)[C@H](O)[C@]54O` [BRUCEINE D], the half-maximal inhibitory concentration (IC50) came out at 0.835 µg/mL (≈ 2.03 µM).

In turn, `CC1=CC(=O)[C@@H](O)[C@]2(C)[C@H]3[C@@H](O)[C@H](O)[C@]4(CO)OC[C@@]35[C@@H](C[C@@H]12)OC(=O)[C@H](O)[C@]54O` [YADANZIOLIDE A] showed an IC50 of 0.216 µg/mL (≈ 0.507 µM).
